Measurements reported in patent publication US6407081B1, “Method for inhibiting cytokine production by cells” (Previsan AG, priority 1997, dated 2002).

Assays:
[1] = tested on: Peripheral mononuclear blood cells (PMBC); test: Cytotoxic effects on the PBMC cultures of Examples 1 and 2; type: cell-based, human; settings: at the ADA concentrations reducing cytokine production in Examples 1 and 2
IFN-γ [2] = test: Interferon-γ production by purified T lymphocytes (Example 3); type: cell-based, human; settings: mean of 3 donors
Procedure: (§1) PBMC from three healthy donors are purified by density gradient […] (LymphoPrep). The T lymphocytes are obtained from 15.10^6 PBMC incubated for 20 to 30 minutes in a waterbath at 37° C. with 0.8 ml of a mixture of LymphoKwik® (One Lambda, Inc., CA, USA). This latter substance is a mixture of complement and specific antibody for antigen units of the cell membrane which lyses the unwanted cells (B lymphocytes, monocytes, etc.). The cells are centrifuged and then washed twice.
(§2) These cultures are treated with various concentrations of ADA.
(§3) In Examples 3 and 4, the results are stated as a percentage taking the medium without ADA as 100%. The concentrations corresponding to 100% are respectively 90,000 pg/ml for IL-2, 1100 pg/ml for IL-5, 1900 pg/ml for IFN-γ and 2870 pg/ml for TNF-α. The results are the mean of independent ELISA assays.

IFN-γ [3] = test: Interferon-γ production by purified CD4 T lymphocytes stimulated by PMA + anti-CD28 (Example 4); type: cell-based, human; settings: for IFN-γ in % relative to control: purified CD4 T lymphocytes, PMA + anti-CD28, mean of 2 donors
Procedure: (§4) Purified CD4 T lymphocytes (90% purity) stimulated by PMA (phorbol myristate acetate)+anti-CD28 antibodies from healthy donors are treated with various concentrations of ADA.
as §3

IL-5 = IL-5 production by purified CD4 T lymphocytes stimulated by PMA + anti-CD28 (Example 4); type: cell-based, human; settings: for IL-5 in % relative to control: purified CD4 T lymphocytes, PMA + anti-CD28, 1 donor
Procedure: as §4, §3

IL-2 [4] = test: IL-2 production by purified T lymphocytes (Example 3); type: cell-based, human; settings: mean of 2 donors
Procedure: as §1, §2, §3

IL-2 [5] = test: In vivo serum IL-2 release after anti-CD3 145-2C11 mAb (Example 5); design: species or system BALB/C mice; settings: ADA 100 mg/kg single injection one day before 145-2C11 mAb; sera at 2, 4, 8, 24 h; FIG. 1
Procedure: A single intraparenteral injection of azodicarbon-amide (ADA) at a dose of 100 mg/kg bodyweight or corresponding carrier is made into BALB/C mice (Harlan, Zeist, Netherlands) one day before intraparenteral inoculation of 25 μg of hamster 145-2C11 mAb, an anti-mouse CD3 mAb which brings about massive in vivo activation of polyclonal T cells, resulting in systemic cytokine release. Sera are collected 2, 4, 8 and 24 hours after the anti-CD3 treatment and the cytokine (IL-2, IL-4) levels are determined by an ELISA test (Genzyme).
FIGS. 1 and 2 are graphs showing, on the y-axis, the quantities of IL-2 and IL-4 in the serum as a mean of 5 test animals. […] The empty bars show the results obtained with the carrier and the shaded bars show those obtained with prior ADA treatment.

interferon-γ = test: Interferon-γ production by PHA-activated PBMC (Example 2); type: cell-based, human; settings: for Interferon-γ content as a percentage of the control: PHA-activated PBMC, 72 h
Procedure: Peripheral mononuclear blood cells (PMBC) from five healthy human donors are isolated in the conventional manner from 50 ml of their blood and then purified by density gradient centrifugation (Lymphoprep). The cells (5.10^6 cells/ml) are activated by 0.3 μg/ml of phytohaemagglutinin (PHA) and cultured for 72 hours at 37° C. in the presence of various concentrations of ADA (20, 10, 5, 1, 0.2 and 0.04 μg/ml). The culture medium consists of RPMI 1640 complemented with 10% foetal calf serum and glutamine and contains mercaptoethanol. The ADA solutions are prepared in dimethyl sulfoxide (DMSO), the working concentration of DMSO during the experiments being 0.1%. Said experiments are performed on 96 well plates (200 μl/well) and, once the plates have been centrifuged at 1500 revolutions per minute for 10 minutes, the supernatants are harvested and the IL-5 content thereof analysed by an ELISA immunoenzymatic assay.
Starting from the same cell cultures as those used in Example 1, the presence of interferon-γ was investigated after treatment with the stated concentrations of ADA.

skin allograft = test: Skin allograft rejection (Example 6); type: in vivo, C57BL/6 mice; settings: ADA 50 mg/kg daily injection vs carrier control; FIG. 3
Procedure: Skin grafts, which are well known to be highly dependent upon T cells, are prepared from the tails of four female C57BL/6. CH-2^bm12 mice (Jackson Laboratory, Bar Harbor, Me., USA). These grafts are grafted onto the sides of C57BL/6 mice (Harlan, Zeist, Netherlands). A dressing is applied around the hole. This dressing is removed 10 days later and the grafts are inspected daily. The test mice receive a daily intraparenteral injection of 50 mg/kg bodyweight of ADA and the controls receive an equivalent quantity of the corresponding carrier until acute rejection is observed.
On the graph in FIG. 3, survival of the skin graft is plotted, in %, on the y-axis, while the number of days since the transplant is plotted on the x-axis.

[6] = 20 μg/ml of ADA, donors of Examples 3 and 4

In the case of `NC(=O)N=NC(N)=O` [ADA, azodicarbon-amide], the cytotoxic effects [1] is reported as “no cytotoxic effects”, the “IFN-γ in % relative to control” value (IFN-γ [2]; ADA 1 μg/ml) is reported as 82 % relative to control and the “IFN-γ in % relative to control” value (IFN-γ [2]; ADA 5 μg/ml) is reported as 34 % relative to control. The “IFN-γ in % relative to control” value (IFN-γ [2]; ADA 10 μg/ml) was 14 % relative to control, the “IFN-γ in % relative to control” value (IFN-γ [2]; ADA 20 μg/ml) was 4 % relative to control and the “production of interferon-γ” value (IFN-γ [3]; [6]) was “inhibited”. The “IFN-γ in % relative to control” value (IFN-γ [3]; ADA 1 μg/ml) was 73 % relative to control, the “IFN-γ in % relative to control” value (IFN-γ [3]; ADA 5 μg/ml) was 36 % relative to control and the “IFN-γ in % relative to control” value (IFN-γ [3]; ADA 10 μg/ml) was 15 % relative to control. The “IFN-γ in % relative to control” value (IFN-γ [3]; ADA 20 μg/ml) was 12 % relative to control, the “production of IL-5” value (IL-5; [6]) was “inhibited” and the “IL-5 in % relative to control” value (IL-5; ADA 1 μg/ml) was 69 % relative to control. The “IL-5 in % relative to control” value (IL-5; ADA 5 μg/ml) was 45 % relative to control, the “IL-5 in % relative to control” value (IL-5; ADA 10 μg/ml) was 43 % relative to control and the “IL-5 in % relative to control” value (IL-5; ADA 20 μg/ml) was 38 % relative to control. For the same compound, the “IL-2 in % relative to control” value (IL-2 [4]; ADA 1 μg/ml) was 68 % relative to control, the “IL-2 in % relative to control” value (IL-2 [4]; ADA 5 μg/ml) was 27 % relative to control and the “IL-2 in % relative to control” value (IL-2 [4]; ADA 10 μg/ml) was 9 % relative to control. The “IL-2 in % relative to control” value (IL-2 [4]; ADA 20 μg/ml) was 3 % relative to control, the “release of IL-2 into serum” value (IL-2 [5]) was “significant reduction” and the “Interferon-γ content as a percentage of the control” value (interferon-γ; ADA 0.04 μg/ml, Donor 1) was 62 % of control. The “Interferon-γ content as a percentage of the control” value (interferon-γ; ADA 0.04 μg/ml, Donor 2) was 53 % of control, the “Interferon-γ content as a percentage of the control” value (interferon-γ; ADA 0.04 μg/ml, Donor 3) was 99 % of control and the “Interferon-γ content as a percentage of the control” value (interferon-γ; ADA 0.04 μg/ml, Donor 4) was 82 % of control. For the same compound, the “Interferon-γ content as a percentage of the control” value (interferon-γ; ADA 0.04 μg/ml, Donor 5) was 38 % of control, the “Interferon-γ content as a percentage of the control” value (interferon-γ; ADA 0.04 μg/ml, Mean of donors) was 67 % of control and the “Interferon-γ content as a percentage of the control” value (interferon-γ; ADA 0.2 μg/ml, Donor 1) was 112 % of control. The “Interferon-γ content as a percentage of the control” value (interferon-γ; ADA 0.2 μg/ml, Donor 2) was 111 % of control, the “Interferon-γ content as a percentage of the control” value (interferon-γ; ADA 0.2 μg/ml, Donor 3) was 70 % of control and the “Interferon-γ content as a percentage of the control” value (interferon-γ; ADA 0.2 μg/ml, Mean of donors (donors 4, 5 not given)) was 98 % of control. For the same compound, the “Interferon-γ content as a percentage of the control” value (interferon-γ; ADA 1 μg/ml, Donor 1) was 87 % of control, the “Interferon-γ content as a percentage of the control” value (interferon-γ; ADA 1 μg/ml, Donor 2) was 98 % of control and the “Interferon-γ content as a percentage of the control” value (interferon-γ; ADA 1 μg/ml, Donor 3) was 49 % of control. The “Interferon-γ content as a percentage of the control” value (interferon-γ; ADA 1 μg/ml, Mean of donors (donors 4, 5 not given)) was 78 % of control, the “Interferon-γ content as a percentage of the control” value (interferon-γ; ADA 5 μg/ml, Donor 1) was 68 % of control and the “Interferon-γ content as a percentage of the control” value (interferon-γ; ADA 5 μg/ml, Donor 2) was 128 % of control. For the same compound, the “Interferon-γ content as a percentage of the control” value (interferon-γ; ADA 5 μg/ml, Donor 3) was 62 % of control, the “Interferon-γ content as a percentage of the control” value (interferon-γ; ADA 5 μg/ml, Donor 4) was 57 % of control and the “Interferon-γ content as a percentage of the control” value (interferon-γ; ADA 5 μg/ml, Donor 5) was 25 % of control. The “Interferon-γ content as a percentage of the control” value (interferon-γ; ADA 5 μg/ml, Mean of donors) was 68 % of control, the “Interferon-γ content as a percentage of the control” value (interferon-γ; ADA 10 μg/ml, Donor 1) was 23 % of control and the “Interferon-γ content as a percentage of the control” value (interferon-γ; ADA 10 μg/ml, Donor 2) was 169 % of control. The “Interferon-γ content as a percentage of the control” value (interferon-γ; ADA 10 μg/ml, Donor 3) was 43 % of control, the “Interferon-γ content as a percentage of the control” value (interferon-γ; ADA 10 μg/ml, Mean of donors (donors 4, 5 not given)) was 78 % of control and the “Interferon-γ content as a percentage of the control” value (interferon-γ; ADA 20 μg/ml, Donor 1) was 21 % of control. For the same compound, the “Interferon-γ content as a percentage of the control” value (interferon-γ; ADA 20 μg/ml, Donor 2) was 86 % of control, the “Interferon-γ content as a percentage of the control” value (interferon-γ; ADA 20 μg/ml, Donor 3) was 40 % of control and the “Interferon-γ content as a percentage of the control” value (interferon-γ; ADA 20 μg/ml, Donor 4) was 25 % of control. The “Interferon-γ content as a percentage of the control” value (interferon-γ; ADA 20 μg/ml, Donor 5) was 16 % of control, the “Interferon-γ content as a percentage of the control” value (interferon-γ; ADA 20 μg/ml, Mean of donors) was 38 % of control and the “inhibition of interferon-γ production, number of donors” value (interferon-γ; PBMC of 5 donors, ADA 0.04-20 μg/ml) was “inhibition is observed in 4 out of 5 donors”. The “rejection of the skin allograft” value (skin allograft) was “significantly delayed”.
